Measurements as given in a melting point compilation (Tetko et al.; mined from patent text by program, amines drawn as free bases though some values may be those of a salt).

Row | SMILES | melting point [°C]
1 | O=C1N[C@H](Cc2ccc(C(F)(F)F)cc2)[C@H](c2ccc(F)c(F)c2)O1 (racemic) | 157 to 158
2 | O=Cc1cc(OCCl)c(O)cc1[N+](=O)[O-] | 160 to 161
3 | CC(C)(Cl)C(COCc1ccc([N+](=O)[O-])o1)N=O (configuration not stated) | 134 to 135
4 | Cc1nc(C(F)F)c(C(=O)Nc2ccccc2-c2ccc(Cl)cc2)s1 | 144
5 | O=C(O)C1Cc2c(ccc3c(=O)c4c(F)cccc4oc23)O1 (configuration not stated) | 262 to 265
6 | Cc1cccc2nc3c(c(C)nn3-c3ccccn3)c(Cl)c12 | 167 to 169
7 | O=c1[nH]c(S)ncc1O | > 300
8 | CCC[C@H]1CN(c2c(F)cc3c(=O)c(C(=O)O)cn([C@@H]4C[C@@H]4F)c3c2OC)C[C@H]1N | 79 to 83
9 | O=C1C=CC2=C(C1CC1CC1)n1ccc3c1=C(CCC=3)c1nncn12 (configuration not stated) | 99
10 | Cn1c2ccc(Cl)cc2c2c3ccccc3c(OCC3CC3)nc21 | 141 to 142
11 | N#CCCn1cccc1-c1ccc2cnc(Nc3ccc(N4CCOCC4)cc3)nn12 | 85 to 89
12 | O=C(O)CCCc1cc2cc(C(F)(F)F)ccc2n1S(=O)(=O)c1ccc2c(c1)CCO2 | 144 to 149
13 | Cc1noc(NS(=O)(=O)c2ccc(I)cc2)c1Br | 166 to 173
14 | Cc1cc2nc(N3CCC(=S)CC3)nc(N)c2cc1C | 187 to 188
15 | Cc1ccccc1-c1nsc(S(=O)(=O)N=CN2CCOCC2)n1 | 151 to 153
16 | CCNc1nc(C)c(-c2ccnc(Nc3ccc4c(c3)OCO4)n2)s1 | 194 to 195
17 | COc1ccc(-n2nc(CO)cc2-c2ccc(C)cc2)cc1 | 100 to 102
18 | O=C(OCC1OC(n2cc(F)c(=O)[nH]c2=O)CC1OCc1ccccc1)c1ccc2c(c1)OCO2 (configuration not stated) | 169 to 171
19 | Nc1cc(-n2cccc2)ccc1Nc1cccc(-c2ccccn2)c1 | 135 to 140
20 | O=C(O)c1oc2ccccc2c1CCc1ccccc1 | 169 to 172
21 | O=C(O)c1cnn2c(C(F)F)cc(-c3ccc(OC(F)(F)F)cc3)nc12 | 231
22 | Oc1nnc(O)c2c1CCCC2 | 298 to 300

Row | SMILES | melting point [°C]
23 | CCC1(CC)C(=O)Nc2ccc(-c3ccc(C#N)n3C)cc21 | 233 to 235
24 | Clc1nsnc1-c1cccnc1 | 48 to 49
25 | FCc1cccc(C#CCCn2ncc(-c3ccc(F)cc3)n2)n1 | 84 to 86
26 | Cc1cc2c(c(C(=O)c3ccccc3)c1)NCC2 | 84
27 | CCOC(=O)N1CCC(C#N)(NC(=O)C(CC2CCCCC2)NC(=O)N2CCOCC2)CC1 (configuration not stated) | 140 to 143
28 | O=C(C1CC1)N1CCCC1Cc1ccc(Cl)cc1 (configuration not stated) | 62 to 64
29 | Cc1ncc(C(=O)N2CCC(=O)CC2)c(C)n1 | 116
30 | C=C(Cl)CC1(C)Cc2cc(O)c(Cl)c(Cl)c2C1=O (configuration not stated) | 183
31 | CCCc1nc2c(N)nc3cccnc3c2n1CC1(O)CCCCC1 | 209 to 211
32 | CC1CN(C(=O)C(Cl)Cl)C(C)CN1C(=O)C(Cl)Cl (configuration not stated) | 215
33 | O=C1C2=C(CCCC2)C(=O)N1c1cc(O)c(Cl)cc1Cl | 155 to 157
34 | O=c1cc(C(F)(F)F)ncn1-c1c(Cl)cc(C(F)(F)F)cc1[N+](=O)[O-] | 149 to 150
35 | OCC1OC(n2c(Cl)nc3cc(Cl)ccc32)C(O)C1O (configuration not stated) | 102 to 150
36 | Fc1ccccc1C1=NCCN(C2=NCCO2)c2ccc(Cl)cc21 | 162 to 164
37 | O=C(O)c1cccc(-c2cccc(OCCc3ccc(Cl)cc3Cl)n2)c1 | 199 to 200
38 | O=CN(O)C(CCc1ccccc1)CS(=O)(=O)N1CCN(c2cc(Cl)ncn2)CC1 (configuration not stated) | 155 to 157
39 | N#Cc1sc(Cl)c(Cl)c1Cl | 63 to 64
40 | NCC(c1ccc(Cl)cc1)C1CCCCCC1O (mixture of isomers) | 92 to 93
41 | N#CC(=Cc1cc2cccnc2n(-c2cc(Cl)cc(Cl)c2)c1=O)c1ccccn1 | 319
42 | OC(CCC1CCNCC1)c1cc(-c2ccccc2)nc2ccccc12 (configuration not stated) | 162
43 | CC(C)(C)Sc1c(CC(C)(C)C(=O)O)n(Cc2ccc(Cl)cc2)c2ccc(OCc3cc4ccccc4cn3)cc12 | 228
44 | O=c1[nH][nH]c(=O)c(-c2c(F)cc(F)cc2F)c1-c1ccc(Br)cc1 | 134 to 137

Row | SMILES | melting point [°C]
45 | CC1(C)CC(=O)Nc2cc3nc(-c4ccncc4)[nH]c3cc21 | 201 to 202
46 | N=C(N)N(Cc1ccccc1)c1ccc2c3c(cccc13)CC2 | 138 to 140
47 | COc1ccccc1-c1csc(Nc2ccc(C)cn2)n1 | 228 to 230
48 | COc1cc2cc(-c3ccccc3F)sc2c(Cl)c1Cl | 143 to 144
49 | Cc1cccc(S(=O)(=O)N=CN(C)C)c1C#N | 168 to 174
50 | Cc1ccccc1C(=O)N[C@@H]1CCc2cccc(N3CCN(C)CC3)c2C1 | 179 to 180
51 | CC(C)(Cc1ccccc1)C(=O)Cn1cncn1 | 79
52 | O=C(O)COc1cccc2c1CCc1sc(S(=O)(=O)CCCC(c3ccccc3)c3ccccc3)nc1-2 | 180 to 181
53 | CC1(C)Oc2ccc(C#N)cc2[C@@H](N2CCCC2)[C@@H]1O (relative stereo) | 173 to 174
54 | O=C1OCCC12Sc1ccc(Cl)cc1C2=O (configuration not stated) | 143 to 144
55 | CC(CO)Nc1nc(-c2ccc(Br)cc2)cs1 (configuration not stated) | 100 to 101
56 | CC(=O)SCCC(=O)N1CCC[C@H]1C(=O)O | 89 to 90
57 | N=C(CC=O)c1ccccc1 | 80 to 82
58 | Cc1c(Cl)c(Cl)nc2c1NC(=O)c1cccnc1N2C1CC1 | > 290
59 | Cc1cc(C)n2nc(NS(=O)(=O)c3cc(Cl)ccc3Cl)nc2n1 | 216 to 218
60 | Nc1ncc2c(n1)CCC(NC(=O)[C@@H]1CCCN1C(=O)[C@@H](Cc1ccccc1)NS(=O)(=O)Cc1ccccc1)C2 (some centres not stated) | 117 to 120
61 | [N-]=[N+]=Nc1ccc(CBr)cc1Cl | 75 to 77
62 | COc1ccc(C2=NN(CCCOc3ccccc3)C(=O)[C@H]3CCCC[C@@H]23)cc1OC (relative stereo) | 78 to 81
63 | N#CCc1ccc(Cl)nc1 | 80
64 | S=c1[nH]nc(C=Cc2ccc3ccccc3c2)o1 | > 250
65 | CC1(C)OCc2cc(Cl)cc(C(=O)c3cn(C(c4ccccc4)(c4ccccc4)c4ccccc4)cn3)c2O1 | 200 to 205

More lines, now with the values ahead:

Row | melting point [°C] | SMILES
66 | 49 to 51 | CCOC(=O)CC1(c2ccccc2)CNC(=O)C1 (configuration not stated)
67 | 108 | CC(C)(CO)NS(=O)(=O)c1ccc(Cl)c(N)c1
68 | 143 to 144 | Cc1cn(C)cc(-c2cccc(Cl)c2)c1=O
69 | 173 to 174 | CCOC(=NO)C(=O)C1=Nc2ccccc2C(=O)N(C)C1
70 | 90 to 91 | CCOC(=O)NC(=NCCCc1c[nH]cn1)NCCSCc1cccnc1
71 | 213 to 215 | O=C(Nc1cccc(-c2ccccc2)c1)Nc1cccc2[nH]ccc12
72 | 75 to 76 | CCOC(=O)c1cc(=O)c2c(OCC(O)COc3ccccc3C)cccc2o1 (configuration not stated)
73 | 74 | COc1ccccc1C(=O)c1cccc2c1ccn2C
74 | 115 | CCCCC(=O)Nc1cccc(NC(=O)C=C(C)OC)c1
75 | 234 | Cc1cc(C#N)cc(C(=O)Nc2ccc(Cl)cn2)n1
76 | 102 | Cc1cccc(S(=O)(=O)N2CCCC2c2ccc(F)cc2)c1 (racemic)
77 | 130 | CC(=O)Nc1cc([N+](=O)[O-])ccc1OCCCCl
78 | 125 | CCCCCCNC(=O)Oc1cccc(NC(=O)CC(C)=O)c1
79 | 78 to 79 | CCOC(=O)CCCCCCCn1c(-c2ccccc2)c(-c2ccccc2)[nH]c1=O
80 | 99 to 101 | CCOc1c(C)c(C)c(O)c(CNCCOc2cc(C)ccc2C(C)C)c1C
81 | 254 to 256 | CC(=O)NNC(=O)c1cc2cccc(NS(=O)(=O)c3cccs3)c2[nH]1
82 | 198 to 199 | CS(=O)(=O)CCCC(=O)NNC(=O)N1Cc2ccccc2Oc2ccc(Cl)cc21
83 | 144 to 146 | CC(=NO)c1cc2c(s1)CCCN(CCCCN1CCN(c3ncccn3)CC1)C2=O
84 | 146 to 148 | CC(C)(C)NS(=O)(=O)c1csc2ccccc12

Row | melting point [°C] | SMILES
85 | 27 | CCCCCc1ccc(-c2ccc(F)cc2)nc1
86 | 167 to 169 | CC(C)CC(=O)Nc1cccc(-c2ccnc3c(-c4ccc5[nH]ccc5c4)cnn23)c1
87 | 110 to 111 | Cc1cc(CCCCCS(=O)c2ccc(C3=NCCO3)cc2)on1 (configuration not stated)
88 | 120 to 125 | COC(=O)c1cc(C2=CCCO2)c(C(F)(F)F)cc1NC(C)=O
89 | 138 to 139 | CCCCCN1N=C(c2ccc3c(c2)N(S(C)(=O)=O)CCO3)CCC1=O
90 | 137 to 139 | COc1ccc(CNc2ccc(C(=O)Nc3cccc4cc(C(=O)Nc5cc(C(C)(C)C)cc(NS(C)(=O)=O)c5OC)sc34)cn2)cc1
91 | 249 to 250 | Cc1cnc(NC(=O)C2=C(O)c3ccc4ccccc4c3S(=O)(=O)N2C)s1
92 | 82 to 84 | COc1cc(C=CC(=O)CCc2ccco2)ccc1O
93 | 120 to 122 | O=C(CO)NCCCCCCCCCCNC(=O)CO
94 | 215 to 218 | CC(C)c1nc2cc(NC(=O)OC(C)(C)C)ccn2n1
95 | 170 to 173 | CCOP(=O)(CC(=O)Nc1c(C(C)C)cccc1C(C)C)c1ccccc1 (configuration not stated)
96 | 144 to 147 | CC(C)(ON=C(C(=O)N[C@@H]1C(=O)N[C@@H]1C(N)=O)c1csc(NC(=O)CCl)n1)C(=O)OCc1ccc([N+](=O)[O-])cc1 (relative stereo)
97 | 98 to 99 | CC(C)(C)OC(=O)NCC(=O)c1cccnc1
98 | 129 to 130 | CCCc1c(OCCc2cc3cc(CC(=O)O)ccc3[nH]2)ccc2c(-c3ccccc3)coc12
99 | 122 | CCOC(=O)c1cc2sc(C)c(N(C)C(=O)OCc3ccccc3)c2[nH]1
100 | 183 to 185 | CCOC(=O)Cc1[nH]c(C(=O)c2ccccc2)c(C)c1C(=O)O
101 | 99 | C=C(C)C(=O)OCCOc1ccc(-c2cc(OC(=O)C(=C)C)cc(-c3ccc(OCCOC(=O)C(=C)C)cc3)c2)cc1
102 | 70 to 71 | CCOC(=O)CN(CCOc1cc2cc3c(Nc4cc(OC)c(Cl)cc4C)c(C#N)cnc3cc2cc1OCC)CC(=O)OCC
